For experiment [1], the target named is T1, human GPR120 (Homo sapiens, UniProt Q5NUL3).
T1 construct: expressed in transfected cells; host or cells: CHO-K1 coexpressing Gα16 and mitochondrial apoaequorin
T1 sequence (Q5NUL3 1-361): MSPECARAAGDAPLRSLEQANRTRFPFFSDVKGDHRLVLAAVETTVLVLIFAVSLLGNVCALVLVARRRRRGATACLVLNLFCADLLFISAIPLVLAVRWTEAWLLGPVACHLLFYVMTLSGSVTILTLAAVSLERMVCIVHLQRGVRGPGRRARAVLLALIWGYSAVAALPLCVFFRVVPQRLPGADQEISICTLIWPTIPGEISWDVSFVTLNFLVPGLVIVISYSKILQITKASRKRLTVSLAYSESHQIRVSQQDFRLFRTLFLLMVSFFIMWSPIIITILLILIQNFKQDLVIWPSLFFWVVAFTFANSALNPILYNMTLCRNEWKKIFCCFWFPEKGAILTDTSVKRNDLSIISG
The experiment is described as follows: Human GPR120 Calcium-Release Assay (aequorin luminescence, CHO-K1 cells). Format: cell-based. Particulars: pEC50=−log(EC50) from curve fit; short variant of human GPR120 in CHO-K1 with Gα16 and apoaequorin; read-out: Ca2+ pEC50 (converted). The source says:
This in vitro assay tests compounds' ability to activate heterologously expressed human GPR120 via G-protein coupling leading to generation of inositol 1,4,5-triphosphate and mobilization of intracellular calcium. This functional cellular assay is based on the luminescence of mitochondrial aequorin following intracellular Ca^2+ release. Aequorin is a photoprotein isolated from the jellyfish Aequorea victoria. The active protein is formed in the presence of molecular oxygen from apoaequorin and its cofactor coelenterazine. Binding of Ca^2+ to the active protein induces a conformational change, resulting in oxidation of coelenterazine and subsequent blue luminescence.
The short variant of the human GPR120 receptor (GenBank accession Number AAI01176) was stably expressed in a CHO-K1 cell line coexpressing Gα16 and mitochondrial apoaequorin.
Cells were grown to mid-log phase in culture media without antibiotics, were detached with PBS/EDTA, centrifuged and resuspended in assay buffer (DMEM-F12 medium with 15 mM HEPES pH 7.0 and 0.1% protease free BSA) at a concentration of 10^6 cells/mL. Cells were incubated at room temperature for at least 4 hours with 5 μM coelenterazine h.
Test compounds were dissolved in 100% DMSO to a concentration of 20 mM to provide stock solutions. Serial dilutions were performed from stock solutions in 100% DMSO to obtain intermediate concentrations 200-fold higher than the concentrations to be tested. Each sample was diluted 100-fold into assay buffer. 50 μl of these compound solutions were dispensed into each well of 96-well assay plates. The final concentration of compounds tested in the assay ranged from 5 nM to 100 μM. α-Linolenic acid was used as a reference compound. Each test was performed in duplicate.
To start the assay, 50 μl of cell suspension were added to each well of the assay plate. The resulting luminescence was recorded using a Hamamatsu Functional Drug Screening System 6000 (FDSS 6000), and raw data were expressed as relative light units (RLU).
(§1) To determine agonist potencies (EC50 values), non-linear least-squares curve fits of the raw data (RLU) were performed in the GraphPad Prism software package, using the 4-parameter model with variable Hill Slope:
Reported below in Table 1 are pEC50 values (pEC50=−log(EC50) from curve fit) for representative compounds of Formula I in this assay, Ca2+pEC50.

Experiment [2] concerns the target T2, human GPR120 (Homo sapiens, UniProt Q5NUL3).
T2 construct: host or cells: CHO-K1
The experiment is described as follows: GPR120 β-Arrestin Recruitment Assay (PathHunter, CHO-K1 cells). Format: cell-based. Particulars: for EC50: pEC50=−log(EC50) from curve fit, CHO-K1 cells, 90 min incubation, read-out: β-Arr pEC50 (converted); for activation at 10 µM: CHO-K1, read-out: percent activation at a single concentration (printed in the β-Arr pEC50 column).
Excerpt: This in vitro assay tests compounds' ability to activate intracellular signaling via 3-Arrestin recruitment to heterologously expressed human GPR120. This functional cellular assay utilizes enzyme fragment complementation with β-galactosidlase (β-gal) as a functional reporter (DiscoveRx PathlHunter® β-Arrestin assay platform). The human (GPR120 receptor (GenBank accession Number NM_181745) was fused in frame with the small enzyme fragment ProLink™ and co-expressed in CHO-K1 cells with a fusion protein of β-Arrestin 2 and the larger, N-terminal deletion mutant of β-gal. Activation by a GPR120 agonist stimulates binding of β-arrestin to the ProLink-tagged GPCR and forces complementation of the two enzyme fragments, resulting in the formation of an active β-gal enzyme. This interaction leads to an increase in enzyme activity that can be measured using chemiluminescent PathHunter® Detection Reagents.
One day prior to the assay, cells were seeded in a total volume of 20 μl of growth medium into white walled 384-well microplates and incubated at 37° C./5% CO2 overnight. On the day of the assay, growth medium was removed and 20 μl assay buffer (HBSS+10 mM HEPES+0.1% heat-inactivated BSA) were added to each well.
Test compounds were dissolved in 100% DMSO to a concentration of 10 mM to provide stock solutions. Serial dilutions were performed from stock solutions into assay buffer to obtain intermediate concentrations of 5-fold higher than the concentrations to be tested. 5 μl of the 5× compound solutions were added to the cells and the assay plates were incubated at 37° C. for 90 minutes. The final concentration of compounds tested in the assay ranged from 1.5 nM to 100 μM. Following incubation, 12.5 μl of PathHunter® detection reagent were added to each well, and plates were incubated at room temperature for 60 minutes. Chemiluminescence was read using an EnVision plate reader (PerkinElmer), raw data were expressed as relative light units (RLU).
as §1
T2 sequence (Q5NUL3 1-377 isoform Q5NUL3-1): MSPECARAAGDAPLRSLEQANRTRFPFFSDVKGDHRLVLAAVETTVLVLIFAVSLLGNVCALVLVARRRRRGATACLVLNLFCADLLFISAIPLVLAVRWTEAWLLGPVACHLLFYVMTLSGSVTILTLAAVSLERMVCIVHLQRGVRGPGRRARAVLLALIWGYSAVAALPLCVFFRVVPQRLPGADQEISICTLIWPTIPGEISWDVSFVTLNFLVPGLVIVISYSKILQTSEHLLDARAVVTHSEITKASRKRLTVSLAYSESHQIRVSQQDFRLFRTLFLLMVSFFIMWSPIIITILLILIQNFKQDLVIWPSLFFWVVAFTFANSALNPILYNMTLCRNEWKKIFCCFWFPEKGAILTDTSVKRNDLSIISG
T2 sequence (P32121 whole entry partner): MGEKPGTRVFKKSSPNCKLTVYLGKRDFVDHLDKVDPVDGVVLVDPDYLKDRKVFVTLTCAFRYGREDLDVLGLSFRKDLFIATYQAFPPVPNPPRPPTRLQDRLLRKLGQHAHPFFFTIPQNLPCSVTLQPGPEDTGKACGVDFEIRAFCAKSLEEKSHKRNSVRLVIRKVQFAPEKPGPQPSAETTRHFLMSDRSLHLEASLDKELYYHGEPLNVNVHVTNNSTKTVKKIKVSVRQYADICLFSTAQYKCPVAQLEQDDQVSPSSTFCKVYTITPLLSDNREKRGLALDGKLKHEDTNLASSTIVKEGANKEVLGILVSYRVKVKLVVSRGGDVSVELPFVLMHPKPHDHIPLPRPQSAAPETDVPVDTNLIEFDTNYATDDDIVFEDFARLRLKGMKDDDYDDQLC
Reported below in Table 1 are pEC50 values (pEC50=−log(EC50) from curve fit) for compounds of Formula I in this assay, β-Arr pEC50 Alternatively, percent activation at a single concentration is reported.

SMILES strings stand for the structures. Where only a bound is given, the exact number is not on record here.

Take `O=S1(=O)c2ccccc2CN1c1cccc(Oc2cccc(Cl)c2)n1` [Compound 123]: the EC50 in experiment [1] was over 100 µM; in experiment [2] it was over 31.6 µM.
As to `O=C1c2ccccc2CN1c1cccc(Oc2cccnc2)n1` [Compound 122], the figures for the EC50 in experiment [1] and in experiment [2] were 0.501 µM and over 10 µM, respectively.
For `COc1cc(Oc2cccnc2)nc(N2Cc3ccccc3S2(=O)=O)n1` [Compound 80] the same measures were 2.51 µM and 0.501 µM.
For `O=S1(=O)c2ccccc2CN1c1ccnc(Oc2ccc(OC(F)(F)F)cc2Cl)n1` [Compound 36] the same measures were 7.94 µM and 0.631 µM.
Turning to `O=S1(=O)c2ccccc2CN1c1ccnc(Oc2ccccc2F)n1` [Compound 56], the results for the EC50 in experiment [1] and in experiment [2] were 0.794 µM and over 10 µM, respectively.
With `O=S1(=O)c2ccccc2CN1c1cc(C(F)(F)F)nc(Oc2cccnc2)n1` [Compound 78], the EC50 in experiment [1] was 3.98 µM; in experiment [2] it was 1.58 µM.
On the same counts, the results for `CN1CC(Oc2nccc(N3Cc4ccccc4S3(=O)=O)n2)C1` [Compound 61] are over 100 µM and over 31.6 µM.
Consider `COc1cc(N2Cc3ccccc3S2(=O)=O)nc(OC2CC(F)(F)C2)n1` [Compound 93], for which, in experiment [1], the EC50 is 0.631 µM.
Consider `Cc1cc(Oc2nccc(N3Cc4ccccc4S3(=O)=O)n2)ccc1Cl` [Compound 35], for which the values for the EC50 in experiment [1] and in experiment [2] were over 100 µM and 1.58 µM, respectively.
For `COc1ccc(Oc2nccc(N3Cc4ccccc4S3(=O)=O)n2)cc1` [Compound 44] the same measures were 1.58 µM and over 10 µM.
Consider `O=S1(=O)c2ccccc2CN1c1ccnc(OCc2ccccn2)n1` [Compound 72], for which the values for the EC50 in experiment [1] and in experiment [2] were over 100 µM and over 10 µM, respectively.
For `CCOc1nccc(N2Cc3ccccc3S2(=O)=O)n1` [Compound 67], the EC50 is 6.31 µM in experiment [1] and over 10 µM in experiment [2].
For `COc1cc(Oc2ccc(F)cc2)nc(N2Cc3ccccc3S2(=O)=O)n1` [Compound 101] the same measures were over 0.1 µM and 0.398 µM.
Take `O=S1(=O)c2ccccc2CN1c1ccnc(Oc2ccc(Cl)cc2)n1` [Compound 21]: the EC50 was 0.501 µM in experiment [1] and over 7.94 µM in experiment [2].
Take `Cc1cc(N2Cc3ccccc3S2(=O)=O)nc(Oc2cccnc2)n1` [Compound 77]: the EC50 in experiment [1] was 1 µM; in experiment [2], 2.51 µM.
For `O=S1(=O)c2ccccc2CN1c1ccnc(Oc2ccccc2)n1` [Compound 16] the same measures were 1.26 µM and 6.31 µM.
In the case of `Cc1cc(N2Cc3ccccc3S2(=O)=O)nc(Oc2ccc(F)cc2)n1` [Compound 106], the EC50 in experiment [1] was 0.2 µM; in experiment [2], 1 µM.
On the same counts, the results for `Cc1cc(OC2CCC2)nc(N2Cc3ccccc3S2(=O)=O)c1` [Compound 128] are 0.0794 µM and 0.0398 µM.
For the compound `O=S1(=O)c2ccccc2CN1c1ccnc(Oc2ccc(Br)cc2)n1` [Compound 41], the EC50 was 0.794 µM in experiment [1] and 2.51 µM in experiment [2].
For `O=S1(=O)c2ccccc2CN1c1ccnc(Oc2cccnc2)n1` [Compound 1], the EC50 in experiment [1] is 7.94 µM.
The same measure, in the same setting: then `O=S1(=O)c2ccccc2CN1c1ccnc(Oc2cncc(Cl)c2)n1` [Compound 51], with 1 µM.
On to `CC(=O)Nc1cc(Oc2ccc(Cl)cc2)nc(N2Cc3ccccc3S2(=O)=O)c1` [Compound 138], for which the EC50 in experiment [2] is 3.16 µM.
The same measure, in the same setting: then `O=S1(=O)c2ccccc2CN1c1ccnc(Oc2ccc(OC(F)(F)F)cc2)n1` [Compound 49], with 2.51 µM; and `O=S1(=O)c2ccccc2CN1c1cccc(OC2CCC2)n1` [Compound 126], with over 31.6 µM.
Consider `O=S1(=O)c2ccccc2CN1c1ccnc(Oc2ccncc2)n1` [Compound 15], for which the activation at 10 µM in experiment [2] came out at 3%.
`COc1ccc2c(c1)CN(c1cccc(Oc3cccnc3)n1)S2(=O)=O` [Compound 133]: the EC50 in experiment [2] is over 31.6 µM.
Still for that read-out and setting: then `CN1CCC(Oc2nccc(N3Cc4ccccc4S3(=O)=O)n2)CC1` [Compound 74], with over 31.6 µM; and `O=S1(=O)c2ccccc2CN1c1ccnc(Oc2ccc(Cl)nc2)n1` [Compound 54], with over 10 µM.
For the compound `O=S1(=O)c2ccccc2CN1c1ccnc(Oc2ccnc3ccccc23)n1` [Compound 27], the activation at 10 µM in experiment [2] amounted to 9%.
On to `O=S1(=O)c2ccccc2CN1c1ccnc(-n2ccc3ccncc32)n1` [Compound 30], for which, in experiment [2], the activation at 10 µM was 17%.
Take `O=C1c2ccccc2CN1c1ccnc(Oc2cccnc2)n1` [Compound 28]: the EC50 in experiment [2] is 12.6 µM.
Consider `COc1ccc2c(c1)S(=O)(=O)N(c1nccc(Oc3cccnc3)n1)C2` [Compound 90], for which the EC50 in experiment [2] is 12.6 µM.
Still for that read-out and setting: the value for `O=S1(=O)c2ccccc2CN1c1nccc(OC2CC(F)(F)C2)n1` [Compound 94] was over 10 µM; that for `O=S1(=O)c2ccccc2CN1c1ccnc(Oc2cc(Cl)cc(Cl)c2)n1` [Compound 38] was 15.8 µM.
For `c1cncc(Oc2nccc(N3Cc4ccccc4C3)n2)c1` [Compound 13], the activation at 10 µM in experiment [2] worked out at 9%.
`O=S1(=O)c2ccccc2CN1c1ccnc(Oc2ccc(Cl)c(Cl)c2)n1` [Compound 33]: the EC50 in experiment [1] was over 100 µM.
On to `CC(=O)N1CC(Oc2nccc(N3Cc4ccccc4S3(=O)=O)n2)C1` [Compound 110], for which the EC50 in experiment [2] was over 31.6 µM.
Same read-out and setting: then `O=C(COc1nccc(N2Cc3ccccc3S2(=O)=O)n1)Nc1ccccc1` [Compound 76], with over 31.6 µM; and `CC1c2ccccc2S(=O)(=O)N1c1ccnc(Oc2cccnc2)n1` (stereo not shown) [Compound 8], with 12.6 µM; and `CN1CCN(c2cc(N3Cc4ccccc4S3(=O)=O)nc(Oc3cccnc3)n2)CC1` [Compound 108], with over 31.6 µM.
As for `O=S1(=O)c2ccccc2CN1c1ccnc(Oc2cncc3ccccc23)n1` [Compound 32], in experiment [2], the EC50 was 25.1 µM.
Still for that read-out and setting: then `COc1cccc(Oc2nccc(N3Cc4ccccc4S3(=O)=O)n2)c1` [Compound 39], with over 10 µM; and `O=C1c2ccccc2CN1c1cccc(Oc2cccc(Cl)c2)n1` [Compound 130], with over 31.6 µM; and `O=S1(=O)c2ccccc2CN1c1ccnc(-n2ccc3ccccc32)n1` [Compound 29], with 15.8 µM.
`O=S1(=O)c2ccccc2CN1c1ccnc(Oc2ccc(C(F)(F)F)cc2)n1` [Compound 47]: the EC50 in experiment [2] is 6.31 µM.
For the compound `O=C1c2cccc(Br)c2CN1c1ccnc(Oc2cccnc2)n1` [Compound 113], the EC50 in experiment [2] is 12.6 µM.
